Laboratory results reported in ChEMBL document CHEMBL5370561, “Characterization of a Malabaricane-Type Triterpene Synthase from Astragalus membranaceus and Enzymatic Synthesis of Astramalabaricosides” (J Nat Prod, 2023).

Legend:
PC-9 = assay: Cytotoxicity against human PC-9 cells assessed as reduction in cell growth measured after 72 hrs by MTT assay; assay type: functional, cell-based; conditions: PC-9, 72 h
HepG2 [1] = assay: Cytotoxicity against human HepG2 cells assessed as reduction in cell growth measured after 72 hrs by MTT assay; assay type: functional, cell-based; conditions: HepG2, 72 h
BGC-823 = assay: Cytotoxicity against human BGC-823 cells assessed as reduction in cell growth measured after 72 hrs by MTT assay; assay type: functional, cell-based; conditions: BGC-823, 72 h
HCT-116 = assay: Cytotoxicity against human HCT-116 cells assessed as reduction in cell growth measured after 72 hrs by MTT assay; assay type: functional, cell-based; conditions: HCT-116, 72 h
Influenza A virus = assay: Antiviral activity against Influenza A virus infected in HEK293T-GlUC cells assessed as inhibition of viral replication at 10 uM preincubated with cells for 2 hrs followed by viral infection and measured after 24 hrs relative to control; assay type: functional; conditions: HEK-293T, time 26 hrs
RAW264.7 = assay: Antiinflammatory activity in LPS-induced mouse RAW264.7 cells assessed as inhibition of TNF-alpha production at 10 uM incubated for 1 hr followed by LPS-stimulation and measured after 24 hrs by ELISA analysis relative to control; assay type: functional; conditions: time 25 hrs
PANC-1 = assay: Cytotoxicity against human PANC-1 cells assessed as reduction in cell growth measured after 72 hrs by MTT assay; assay type: functional, cell-based; conditions: PANC-1, 72 h
HepG2 [2] = assay: Hepatoprotective activity against APAP-induced cell injury in human HepG2 cells assessed as cell survival rate at 10 uM incubated for 24 hrs by MTT assay relative to control; assay type: functional

SMILES	IC50 (PC-9)	IC50 (HepG2 [1])	IC50 (BGC-823)	IC50 (HCT-116)	inhibition at 10 µM (Influenza A virus)	inhibition at 10 µM (RAW264.7)	IC50 (PANC-1)	Activity (HepG2 [2])
C=C(CC/C=C(\C)CCC=C(C)C)[C@H]1CC[C@H]2[C@@]1(C)CC[C@H]1C(C)(C)[C@@H](O)CC[C@]21C	> 50 µM	> 50 µM	> 50 µM	> 50 µM	45%	40%	> 50 µM	–
CC(C)=CCC/C(C)=C/CCC(C)(O)[C@H]1CC[C@H]2[C@@]1(C)CC[C@H]1C(C)(C)[C@@H](O)CC[C@]21C (some centres undefined)	14 µM	22 µM	40 µM	17 µM	71%	34%	15 µM	47%
CC(C)=CCC/C(C)=C/CC[C@@](C)(O)[C@@H]1CC[C@H]2[C@@]1(C)CC[C@H]1C(C)(C)[C@@H](O[C@@H]3O[C@H](CO)[C@@H](O)[C@H](O)[C@H]3O[C@@H]3O[C@H](CO)[C@@H](O)[C@H](O)[C@H]3O)CC[C@]21C	36 µM	> 50 µM	26 µM	39 µM	65%	30%	45 µM	48%
CC(C)=CCC[C@@](C)(O)[C@H]1CC[C@]2(C)[C@@H]1CC[C@@H]1[C@@]3(C)CC[C@H](O)C(C)(C)[C@@H]3CC[C@]12C	49 µM	37 µM	40 µM	40 µM	57%	43%	33 µM	51%
CC(C)=CCC/C(C)=C/CC[C@@](C)(O)[C@@H]1CC[C@H]2[C@@]1(C)CC[C@H]1C(C)(C)[C@@H](O[C@@H]3O[C@H](CO)[C@@H](O)[C@H](O)[C@H]3O)CC[C@]21C	49 µM	> 50 µM	> 50 µM	28 µM	47%	39%	22 µM	55%
CC(C)=CCC/C(C)=C/CC[C@@](C)(O)[C@@H]1CC[C@H]2[C@@]1(C)CC[C@H]1C(C)(C)[C@@H](O)CC[C@]21C	44 µM	31 µM	42 µM	41 µM	76%	42%	29 µM	–
CC(C)=CC/C=C(/C)[C@H]1CC[C@]2(C)[C@@H]1CC[C@@H]1[C@@]3(C)CC[C@H](O)C(C)(C)[C@@H]3CC[C@]12C	> 50 µM	> 50 µM	> 50 µM	> 50 µM	88%	50%	> 50 µM	52%
C=C(CC/C=C(\C)CCC=C(C)C)[C@@H]1CC[C@H]2[C@@]1(C)CC[C@H]1C(C)(C)[C@@H](O)CC[C@]21C	> 50 µM	> 50 µM	> 50 µM	> 50 µM	62%	53%	> 50 µM	58%
C[C@@H]1C[C@H]2[C@@H]3CCC4=CC(=O)C=C[C@]4(C)[C@@]3(F)[C@@H](O)C[C@]2(C)[C@@]1(O)C(=O)CO [DEXAMETHASONE]	–	–	–	–	–	55%	–	–
N[C@@H](CCC(=O)N[C@@H](CS)C(=O)NCC(=O)O)C(=O)O [GLUTATHIONE]	–	–	–	–	–	–	–	60%
C=C(C)[C@@H]1CC[C@]2(C)CC[C@]3(C)[C@H](CC[C@@H]4[C@@]5(C)CC[C@H](O)C(C)(C)[C@@H]5CC[C@]43C)[C@@H]12 [LUPEOL]	> 50 µM	> 50 µM	> 50 µM	> 50 µM	17%	34%	> 50 µM	–
CC(=O)O[C@H]1C(=O)[C@@]2(C)[C@H]([C@H](OC(=O)c3ccccc3)[C@]3(O)C[C@H](OC(=O)[C@H](O)[C@@H](NC(=O)c4ccccc4)c4ccccc4)C(C)=C1C3(C)C)[C@]1(OC(C)=O)CO[C@@H]1C[C@@H]2O [PACLITAXEL]	–	0.064 µM	–	–	–	–	0.004 µM	–
NC(=O)c1ncn([C@@H]2O[C@H](CO)[C@@H](O)[C@H]2O)n1 [RIBAVIRIN]	–	–	–	–	97%	–	–	–
